For twelve molecules, IC50 results are on record in ChEMBL document CHEMBL1130406, “Ortho-substituted benzofused macrocyclic lactams as zinc metalloprotease inhibitors” (J Med Chem, 1997).

Where only a bound is given, the exact number is not on record here.

One experiment has as its target Neprilysin (Homo sapiens, UniProt P08473). Put plainly: Inhibition of neutral endopeptidase.
The target of the next experiment is T1, Thermolysin (Bacillus thermoproteolyticus, UniProt P00800).
T1 sequence (P00800 whole entry): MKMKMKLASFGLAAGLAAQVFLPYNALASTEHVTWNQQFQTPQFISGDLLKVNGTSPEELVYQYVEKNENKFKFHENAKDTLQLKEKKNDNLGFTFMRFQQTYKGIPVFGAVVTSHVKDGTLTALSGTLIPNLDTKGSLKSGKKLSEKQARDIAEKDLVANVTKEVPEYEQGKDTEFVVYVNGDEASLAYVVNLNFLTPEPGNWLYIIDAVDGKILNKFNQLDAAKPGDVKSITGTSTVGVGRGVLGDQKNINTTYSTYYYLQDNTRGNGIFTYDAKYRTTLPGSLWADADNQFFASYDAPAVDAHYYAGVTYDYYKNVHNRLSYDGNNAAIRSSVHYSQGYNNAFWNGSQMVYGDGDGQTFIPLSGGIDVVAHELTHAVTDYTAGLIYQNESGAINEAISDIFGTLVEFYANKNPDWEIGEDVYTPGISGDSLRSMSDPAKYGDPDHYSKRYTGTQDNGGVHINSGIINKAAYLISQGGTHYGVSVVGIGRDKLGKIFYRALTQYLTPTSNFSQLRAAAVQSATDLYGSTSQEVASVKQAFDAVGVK
Put plainly: Inhibitory concentration required to inhibit thermolysin.

Neprilysin, sequence (P08473 whole entry): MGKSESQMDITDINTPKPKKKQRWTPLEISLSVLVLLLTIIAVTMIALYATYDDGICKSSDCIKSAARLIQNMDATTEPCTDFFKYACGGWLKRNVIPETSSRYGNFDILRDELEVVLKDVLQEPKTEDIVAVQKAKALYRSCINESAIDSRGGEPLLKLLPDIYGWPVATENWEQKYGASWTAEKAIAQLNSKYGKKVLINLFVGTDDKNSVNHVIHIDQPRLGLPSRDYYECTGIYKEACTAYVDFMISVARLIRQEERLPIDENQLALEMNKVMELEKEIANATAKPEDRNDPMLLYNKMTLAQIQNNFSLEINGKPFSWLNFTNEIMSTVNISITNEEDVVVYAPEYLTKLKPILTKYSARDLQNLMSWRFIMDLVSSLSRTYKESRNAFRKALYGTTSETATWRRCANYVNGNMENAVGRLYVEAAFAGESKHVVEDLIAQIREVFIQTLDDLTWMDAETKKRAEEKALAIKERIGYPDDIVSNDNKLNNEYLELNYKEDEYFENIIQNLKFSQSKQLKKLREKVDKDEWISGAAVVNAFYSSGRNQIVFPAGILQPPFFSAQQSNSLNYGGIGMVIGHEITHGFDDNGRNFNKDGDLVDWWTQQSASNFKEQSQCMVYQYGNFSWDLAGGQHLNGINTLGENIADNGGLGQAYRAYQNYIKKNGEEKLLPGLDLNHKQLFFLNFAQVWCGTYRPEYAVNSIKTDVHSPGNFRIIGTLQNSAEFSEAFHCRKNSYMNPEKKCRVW

The molecule `O=C1N[C@H](C(=O)O)Cc2ccccc2CCCCCCC[C@@H]1CS` yielded an IC50 against Neprilysin of 900 nM.

For the molecule `O=C1N[C@H](C(=O)O)CCCCc2ccccc2C[C@H]1CS`, the IC50 against Thermolysin is 2300 nM; against Neprilysin, 7 nM.

For the molecule `O=C1N[C@@H](C(=O)O)Cc2ccccc2CCCCCCC[C@@H]1CS`, the figures for the IC50 at Thermolysin and against Neprilysin were 60000 nM and greater than 10000 nM, respectively.

Turning to `O=C1N[C@H](C(=O)O)CCCCc2ccccc2C[C@@H]1CS`, the half-maximal inhibitory concentration (IC50) was found to be 68 nM against Thermolysin and 0.9 nM against Neprilysin.

Turning to `O=C1N[C@H](C(=O)O)CCCCCc2ccccc2C[C@H]1CS`, the IC50 was 4000 nM at Thermolysin and 4 nM against Neprilysin.

For `O=C1N[C@H](C(=O)O)CCCCCCc2ccccc2C[C@@H]1CS`, the IC50 against Thermolysin was found to be 41000 nM; against Neprilysin it was 224 nM.

`O=C1N[C@H](C(=O)O)CCCCCCc2ccccc2C[C@H]1CS`: the results for the half-inhibitory concentration (IC50) at Thermolysin and against Neprilysin were 1800 nM and 27 nM, respectively.

As for `O=C1N[C@H](C(=O)O)Cc2ccccc2CCCCCC[C@@H]1CS`, the 50% inhibitory concentration (IC50) at Thermolysin is 40000 nM; on Neprilysin, 67 nM.

At Thermolysin, `O=C(O)CNC(=O)C(CS)Cc1ccccc1` (configuration not stated) [THIORPHAN] displayed a half-inhibitory concentration (IC50) of 9500 nM.

`O=C1N[C@@H](C(=O)O)Cc2ccccc2CCCCCC[C@@H]1CS`: the concentration for half-maximal inhibition (IC50) at Thermolysin amounted to 16000 nM; against Neprilysin, 136 nM.

Consider `O=C1N[C@H](C(=O)O)CCCCCc2ccccc2C[C@@H]1CS`, for which the IC50 was determined as 600 nM against Thermolysin and 3 nM against Neprilysin.

Consider `O=C1N[C@@H](C(=O)O)Cc2ccccc2CCCCC[C@@H]1CS`, for which the IC50 turned out to be 49000 nM against Thermolysin and 99 nM against Neprilysin.

By IC50 is commonly meant the midpoint of a concentration-inhibition curve.
